In patent US20230212202A1, “TREATMENT OF MGMT DEFICIENT CANCER WITH 2-FLUOROETHYL-SUBSTITUTED NITROSOUREAS AND OTHER COMPOUNDS” (YALE UNIVERSITY, priority 2021, published 2023):

What was measured:
[1] = tested on: γH2AX, 53BP1 and pRPA foci in LN229 MGMT+/-, MMR+/- cells; experiment: Immunofluorescence foci assays; assay type: cell-based, human; details: 20 µM
Procedure: Immunofluorescence Foci Assays. High-throughput immunofluorescence foci assays were performed at the Yale Center for Molecular Discovery (YCMD). Cells were seeded at 2000 cells/well in black polystyrene flat bottom 384-well plates (Greiner Bio-One) and allowed to adhere overnight. Compound addition was performed utilizing a Labcyte Echo 550 liquid handler (Beckman Coulter), with 6 replicates per test condition and 12 replicates per control condition. Following drug incubation, cells were fixed and stained for phospho-SER139-H2AX (yH2AX), 53BP1, or phospho-SER33-RPA2 (pRPA) as follows.
γH2AX protocol: Cells were fixed with 4% paraformaldehyde in 1X PBS for 15 min, washed twice with 1X PBS, incubated in extraction buffer (0.5% Triton X-100 in 1X PBS) for 10 min, washed twice with 1X PBS, and incubated in blocking buffer (Blocker Casein in PBS, Thermo Scientific + 5% goat serum, Life Technologies) for 1 h. Mouse anti-phospho-histone H2A.X (Ser139) antibody (clone JBW301, Millipore, 05-636) was added 1/1000 in blocking buffer at 4° C. overnight. After washing with 1X PBS, cells were incubated with goat anti-mouse IgG (H+L) highly cross-adsorbed secondary antibody, Alexa Fluor 647 (Invitrogen, A-21236) 1/500 and with 1 µg/mL Hoechst nucleic acid dye in blocking buffer for 2 h, and then washed with 1X PBS. […]

Procedure for BJ fibroblast cells: Short-term Cell Viability Assay. Cells were seeded in 96-well plates at 1000 or 2000 cells/well and allowed to adhere at 23° C. for 60 min and then incubated overnight at 37° C. […] Cells were imaged on a Cytation 3 imaging reader (BioTek) and quantified using CellProfiler software.

NC(=O)c1ncn2c(=O)n(CCF)nnc12 [KL-50]
γH2AX, 53BP1, pRPA foci formation ([1]; 2 to 48 h): maximal foci response at 48 h, specifically in MGMT- cells and irrespective of MMR status | DDR foci across cell cycle phases ([1]; 48 h): foci formation primarily in the S- and G2-phases | cytotoxicity in normal human fibroblast cells (BJ fibroblast cells): no increase in toxicity
